Laboratory results: US20040058428A1 (priority 2002, published 2004)

Columns and labels:
B. anthracis = assay type: cell-based, Bacillus anthracis
Staphylococcus aureus = assay type: cell-based
B. megaterium = assay type: cell-based
B. subtilis = assay type: cell-based
B. cereus strains = assay type: cell-based
E. coli = assay type: cell-based, Escherichia coli
Klebsiella pneumoniae = assay type: cell-based
Citrobacter freundii = assay type: cell-based
B. thuringiensis = assay type: cell-based
mold colonies = assay type: cell-based
[1] = system: 13 diverse bacterial stock species; assay type: cell-based
[2] = system: non-anthracis gram positive species; assay type: cell-based

O=C([O-])CN(CCN(CC(=O)O)CC(=O)O)CC(=O)[O-].[Na+].[Na+] [EDTA, disodium ethylenediaminetetraacetate]
effect on B. anthracis growth (B. anthracis): undesirably inhibiting | effect on Staphylococcus aureus growth (Staphylococcus aureus): no effect

CO/N=C(\C(=O)N[C@@H]1C(=O)N2C(C(=O)O)=C(COC(C)=O)CS[C@H]12)c1csc(N)n1 [cefotaxime]
appearance of B. anthracis colonies (B. anthracis): failed to appear | growth of B. megaterium (B. megaterium): inhibited | growth of B. subtilis (B. subtilis): inhibited | growth of some strains of B. cereus (B. cereus strains): grow to form colonies | growth of Staphylococcus aureus (Staphylococcus aureus): inhibited | growth of E. coli (E. coli): inhibited | growth of Klebsiella pneumoniae (Klebsiella pneumoniae): inhibited | growth of Citrobacter freundii (Citrobacter freundii): inhibited | growth of B. thuringiensis (B. thuringiensis): inhibited

C[C@@H]1C[C@@H]([C@H](O)CC2CC(=O)NC(=O)C2)C(=O)[C@@H](C)C1 [cycloheximide]
effect on mold contamination (mold colonies): eliminated all mold contamination | effect on pattern of bacterial growth [1]: did not alter the pattern of bacterial growth

[H]/N=C(/N)N[C@H]1[C@H](O)[C@@H](O)[C@H](O[C@@H]2O[C@@H](C)[C@](O)(C=O)[C@H]2O[C@@H]2O[C@@H](CO)[C@H](O)[C@@H](O)[C@@H]2NC)[C@@H](N/C(N)=N\[H])[C@@H]1O [streptomycin]
growth of E. coli strains (E. coli): inhibited

CC(=O)[O-].[Tl+] [thallous acetate]
B. anthracis growth and colony formation (B. anthracis): allowed B. anthracis to grow readily and form colonies | delay of appearance of visible B. anthracis colonies (B. anthracis): delayed approximately one day | restriction of growth of non-anthracis gram positive species including some B. cereus strains [2]: not sufficiently restrictive | restriction of non-anthracis gram positive spore forming species (including some B. cereus strains) [2]: adequately restrictive | susceptibility of Staphylococcus aureus (Staphylococcus aureus): completely resistant

lysostaphin
effect on B. anthracis growth (B. anthracis): without affecting | effect on Staphylococcus aureus growth (Staphylococcus aureus): severely retarded

polymyxin B sulfate
growth of E. coli strains (E. coli): not inhibited
